“And” between values parts separate entries of the source, which are not always exact repeats. Identical values can stand only once. Counter-ions that a name gives are not always drawn.
Legend:
[1] = Drug integrity after extrusion and release, HPLC peaks compared with non-extruded drug
Experimental: An Ultimate 3000 HPLC system (Thermofisher Scientific) equipped with Diode Array Detector (DAD-3000(RS)) and a Phenomenex Kinetex EVO C18, LC Column 100×2.1 mm, 2.6 μm with a pore size of 100 Å. The column was controlled to a temperature of 30° C. The mobile phase was a gradient of Ammonium Bicarbonate 20 mM pH9/Acetonitrile (95/5% to 35/65 in 5 min) with a flow rate of 0.75 mL/min. Naltrexone hydrochloride powder was accurately weighed and dissolved in water to give 450 μg/mL solution. Subsequent dilutions were made with water to get concentrations of 7-450 μg/mL. The standard solutions prepared as above were injected in the same conditions of samples. The peak areas of the naltrexone concentration were calculated. The regression of the naltrexone concentration over the peak areas was obtained and used to estimate the amount of naltrexone released from the polymer.

[2] = Lysozyme activity after extrusion, liquid-liquid extraction and Lysozyme activity Kit; assay type: biochemical
Experimental: The lysozyme was extracted from the drug delivery composition by liquid-liquid extraction. 50 mg of drug delivery composition were solubilized in 2.5 mL of Dichloromethane. Then 7.5 mL of cold 66 mM potassium phosphate buffer pH6.24 was added. The mix was vigorously vortex. Samples were maintained in ice between each step. After phase separation, aqueous phase was taken off and lysozyme activity was measured using Lysozyme activity Kit (from Sigma-Aldrich).
The lysozyme was extracted from the drug delivery composition by liquid-liquid extraction as described in Example 4 and lysozyme activity was titrated with lysozyme activity kit (from Sigma-Aldrich).

[3] = lysozyme powder from Sigma-Aldrich; cited from earlier work

Row | Compound | degradation of the released drug by the PLA-degrading enzyme ([1]; drug delivery composition with Savinase®) | degradation of naltrexone through the extrusion process ([1]; extruded in PLA at 168° C.) | lysozyme activity after two extrusions (in words) ([2]; Example 4 composition (PLA, PCL masterbatch, Savinase®), extrusions at 78° C. and 165° C., results not shown) | lysozyme activity retained after extrusion ([2]; Example 5.2 composition, 50% PCL and 50% lysozyme, extruded at 78° C.) [%] | denaturation temperature [3]
1 | O=C1CC[C@@]2(O)[C@H]3Cc4ccc(O)c5c4[C@@]2(CCN3CC2CC2)[C@H]1O5 [naltrexone, naltrexone hydrochloride] | without any degradation | not degraded | – | – | –
2 | lysozyme: lysozyme powder from Sigma-Aldrich, 14.7 kDa protein used as model drug | – | – | still exhibits activity | 95 | 76 °C and 74 °C
